A word on the IC50: it is the midpoint of a concentration-inhibition curve.

The target of one test is T1, human MAdCAM-1 (huMAdCAM-1-Ig chimera); RPMI 8866 cells expressing α4β7 (Homo sapiens, UniProt P13612+P26010).
T1 construct: RPMI 8866 cells, a B cell lymphoma expressing α4β7; endogenous in cells; host or cells: RPMI 8866 cells (endogenous α4β7)
T1 sequence (P13612 34-1032, change not shown): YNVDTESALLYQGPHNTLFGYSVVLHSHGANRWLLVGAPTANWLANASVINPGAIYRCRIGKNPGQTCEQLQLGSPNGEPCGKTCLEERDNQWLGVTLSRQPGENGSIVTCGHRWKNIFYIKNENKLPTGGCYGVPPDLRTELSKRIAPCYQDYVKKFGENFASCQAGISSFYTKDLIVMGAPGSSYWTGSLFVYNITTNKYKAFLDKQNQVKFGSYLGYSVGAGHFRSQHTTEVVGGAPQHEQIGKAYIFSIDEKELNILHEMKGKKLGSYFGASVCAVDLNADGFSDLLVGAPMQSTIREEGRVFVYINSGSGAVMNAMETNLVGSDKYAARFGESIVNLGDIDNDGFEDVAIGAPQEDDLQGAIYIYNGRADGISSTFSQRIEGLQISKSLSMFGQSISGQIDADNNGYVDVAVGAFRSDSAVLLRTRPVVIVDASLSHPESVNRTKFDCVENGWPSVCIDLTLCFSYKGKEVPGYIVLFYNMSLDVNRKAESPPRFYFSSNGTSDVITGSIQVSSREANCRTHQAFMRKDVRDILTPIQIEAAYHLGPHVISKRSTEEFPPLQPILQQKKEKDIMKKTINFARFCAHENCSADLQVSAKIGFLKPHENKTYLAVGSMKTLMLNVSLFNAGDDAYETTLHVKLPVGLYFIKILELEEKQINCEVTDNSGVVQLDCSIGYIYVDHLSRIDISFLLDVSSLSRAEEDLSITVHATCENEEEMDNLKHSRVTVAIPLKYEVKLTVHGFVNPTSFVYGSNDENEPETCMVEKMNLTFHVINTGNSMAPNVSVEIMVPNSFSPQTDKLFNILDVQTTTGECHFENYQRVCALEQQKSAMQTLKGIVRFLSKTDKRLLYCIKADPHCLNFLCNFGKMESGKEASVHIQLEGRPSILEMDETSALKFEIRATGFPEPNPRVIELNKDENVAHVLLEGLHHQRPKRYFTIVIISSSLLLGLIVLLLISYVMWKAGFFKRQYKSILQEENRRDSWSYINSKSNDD
T1 sequence (P26010 20-798, change not shown): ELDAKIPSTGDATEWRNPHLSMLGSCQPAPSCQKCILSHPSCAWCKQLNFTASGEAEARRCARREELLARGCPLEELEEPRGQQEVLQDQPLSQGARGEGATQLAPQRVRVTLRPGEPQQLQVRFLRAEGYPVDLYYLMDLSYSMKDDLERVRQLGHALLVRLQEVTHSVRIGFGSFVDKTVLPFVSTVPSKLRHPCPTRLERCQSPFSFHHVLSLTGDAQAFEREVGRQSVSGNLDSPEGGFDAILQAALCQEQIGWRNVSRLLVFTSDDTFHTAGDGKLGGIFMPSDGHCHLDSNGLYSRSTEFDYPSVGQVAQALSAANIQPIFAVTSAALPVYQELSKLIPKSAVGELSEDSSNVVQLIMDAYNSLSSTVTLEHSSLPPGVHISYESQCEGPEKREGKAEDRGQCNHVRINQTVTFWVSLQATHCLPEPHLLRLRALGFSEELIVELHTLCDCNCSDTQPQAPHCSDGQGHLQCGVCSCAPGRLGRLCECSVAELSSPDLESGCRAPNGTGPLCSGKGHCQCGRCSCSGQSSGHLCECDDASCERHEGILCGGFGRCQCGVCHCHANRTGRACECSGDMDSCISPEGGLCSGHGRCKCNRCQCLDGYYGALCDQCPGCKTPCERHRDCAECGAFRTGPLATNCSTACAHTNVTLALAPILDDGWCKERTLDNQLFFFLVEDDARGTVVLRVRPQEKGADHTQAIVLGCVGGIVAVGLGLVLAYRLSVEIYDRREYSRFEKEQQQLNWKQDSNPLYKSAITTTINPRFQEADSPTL
The experiment in a line: huMAdCAM-1-Ig/RPMI 8866 Adhesion Assay. In kind it is cell-based. The note with it: Table 6, R1-Leu-Asp-Thr, read-out: hMAdCAM IC50. Here is the method:
RPMI 8866 cells, a B cell lymphoma expressing α4β7 (a gift from D. Erle; Erle, D. J. et al., J. Immunol., 153:517-528 (1994); Shyjan et al., Journal of Immunology, 1996:2851 (1996) were fluorescently labeled (labeling protocol provided below) using BCECF (Molecular probes #B-1170). Cells were resuspended in an assay buffer consisting of Hanks Balanced Salt Solution (HBSS) supplemented with fetal calf serum (FCS) at a final concentration of 2%, HEPES, pH 7.3 at 25 mM. All reagents in this buffer were supplied from Gibco/BRL.
All assays were performed in 96 well strip well plates from Costar (E.I.A./R.I.A. Strip plate-8 Cat. #2581). […] The plates were incubated at 37° C. for one hour (or at 4° C. overnight) and washed once in the automatic plate washer (50 mM Tris HCl, 0.14 M NaCl and 2.0 mM MnCl2 at pH 7.2) (Bio-Tek EL 404 microplate autowasher). Wells were then blocked with PBS (phosphate buffered saline) and 10% FCS (100 μl/well) for one hour at 37° C. followed by the same wash step as described.
Cells were labeled with BCECF-AM (Molecular Probes, Cat. No. B-1170) at a concentration of 2 μl/ml to a cell suspension of 4×10^6 cells/ml in PBS. The cells were incubated in a 37° C. water bath for 30 minutes. Labeled cells were centrifuged at 700 RPM for 10 minutes, resuspended in assay buffer and the centrifugation step was repeated. The cells were resuspended at a final concentration of 2.5×10^6 cells/ml.
For assays, compounds were diluted as follows in a 96 well polypropylene plate. First, a stock solution of each compound was prepared by dissolving compound in 100% DMSO at 100X final concentration to be tested. 10 μl of the stock was added to 90 μl water for the first test dilution. 50 μl of the first test dilution was added to 50 μl of 10% DMSO in water for the second test dilution. 50 μl of the second test dilution was added to 50 μl of 10% DMSO in water for the third test dilution. 50 μof the third test dilution was added to 50 μl of 10% DMSO in water for the fourth test dilution, and so on, until six test dilutions were prepared.
A stock solution of SmM positive control peptide (L783-1A) was made in 100% DMSO, and subsequently diluted in water 1:10 (10 μl of 5 mM stock plus 90 μl of water) to yield a concentration of 0.5mM. This dilution was then further diluted 1:2 with 10% DMSO (50 μl of the compound and 50 μl of 10% DMSO) for a concentration of 250 μM. These 1:2 dilutions were continued serially until six dilutions were achieved. These dilutions represent 10X stocks as shown in the assay set up below:
The assay was set up by adding materials to huMAdCAM-1-Ig-coated plates as follows:
1) 130 μl/well of assay buffer
2) 20 μl/well of diluted compounds or 10% DMSO (control) or diluted positive control peptide.
3) 50 μl of ECECF-AM-labeled RPMI 8866 cells
The plates were wrapped in foil and incubated for 30 minutes at room temperature on a rotary shaker at 45 RPM.
Plates were washed twice (50 mM Tris HCl, […] and 2.0 mM MnCl2 at pH 7.2) on the microplate autowasher plate washer set as follows:
Plates were read in an IDEX fluoresecent plate reader set to excite at 485 nm and read at 535 nm.
Data was collected in microsoft excel in a format for automatic IC 50 determinations.
For `CCCCCCOc1ccc(C(=O)N[C@@H](CC(C)C)C(=O)N[C@@H](CC(=O)O)C(=O)N[C@H](C(N)=O)[C@@H](C)O)cc1` [Table 6 example 1], the IC50 stood at 580 nM.
`CC(C)C[C@H](NC(=O)c1coc2ccccc2c1=O)C(=O)N[C@@H](CC(=O)O)C(=O)N[C@H](C(N)=O)[C@@H](C)O` [Table 6 example 2]: the IC50 is 730 nM.
`CC(C)C[C@H](NC(=O)c1cccc(Cl)c1)C(=O)N[C@@H](CC(=O)O)C(=O)N[C@H](C(N)=O)[C@@H](C)O` [Table 6 example 3]: the IC50 was 1400 nM.
On the same count and under the same terms, next, `CC(C)C[C@H](NC(=O)c1ccc(C(C)(C)C)cc1)C(=O)N[C@@H](CC(=O)O)C(=O)N[C@H](C(N)=O)[C@@H](C)O` [Table 6 example 4]: 1100 nM.
For the compound `CC(C)C[C@H](NC(=O)c1sccc1Br)C(=O)N[C@@H](CC(=O)O)C(=O)N[C@H](C(N)=O)[C@@H](C)O` [Table 6 example 6], the IC50 worked out at 2600 nM.
Turning to `CC(C)C[C@H](NC(=O)c1cccc(C(F)(F)F)c1)C(=O)N[C@@H](CC(=O)O)C(=O)N[C@H](C(N)=O)[C@@H](C)O` [Table 6 example 7], the half-maximal inhibitory concentration (IC50) amounted to 2800 nM.
Consider `CC(C)C[C@H](NC(=O)c1cccc(F)c1F)C(=O)N[C@@H](CC(=O)O)C(=O)N[C@H](C(N)=O)[C@@H](C)O` [Table 6 example 8], for which the half-maximal inhibitory concentration (IC50) was 2000 nM.
Still for that read-out and setting: to `Cc1nc(Cl)ccc1C(=O)N[C@@H](CC(C)C)C(=O)N[C@@H](CC(=O)O)C(=O)N[C@H](C(N)=O)[C@@H](C)O` [Table 6 example 9] belongs 1100 nM.

Staying with this test, now noted: Table 7, R1-Leu-Asp-Thr-R2, read-out: hMAdCAM IC50.
In the case of `CC(C)C[C@H](NC(=O)c1cc2ccccc2cn1)C(=O)N[C@@H](CC(=O)O)C(=O)N[C@H](C(=O)N1CCc2ccccc2C1)[C@@H](C)O` [Table 7 example 1], the IC50 was 780 nM.
Take `CC(C)C[C@H](NC(=O)c1cc2ccccc2cn1)C(=O)N[C@@H](CC(=O)O)C(=O)N[C@H](C(=O)N1CCC(C)OC1C)[C@@H](C)O` (stereo partly drawn) [Table 7 example 3]: the half-inhibitory concentration (IC50) was determined as 970 nM.
On the same count and under the same terms, to `CC(C)C[C@H](NC(=O)c1cc2ccccc2cn1)C(=O)N[C@@H](CC(=O)O)C(=O)N[C@H](C(=O)NCCC1=CCCCC1)[C@@H](C)O` [Table 7 example 4] belongs 640 nM; to `Cc1cccc(CNC(=O)[C@@H](NC(=O)[C@H](CC(=O)O)NC(=O)[C@H](CC(C)C)NC(=O)c2cc3ccccc3cn2)[C@@H](C)O)c1` [Table 7 example 5], 810 nM.
Turning to `CC(C)C[C@H](NC(=O)c1cc2ccccc2cn1)C(=O)N[C@@H](CC(=O)O)C(=O)N[C@H](C(=O)N[C@@H](C)c1cccc2ccccc12)[C@@H](C)O` [Table 7 example 6], the IC50 is 970 nM.
The same measure, in the same setting: next, `CC(C)C[C@H](NC(=O)c1cc2ccccc2cn1)C(=O)N[C@@H](CC(=O)O)C(=O)N[C@H](C(=O)NC1CC1)[C@@H](C)O` [Table 7 example 7]: 3800 nM.
Take `CC(C)C[C@H](NC(=O)c1cc2ccccc2cn1)C(=O)N[C@@H](CC(=O)O)C(=O)N[C@H](C(=O)NC1CCCCCCC1)[C@@H](C)O` [Table 7 example 8]: the IC50 came to 1300 nM.
Turning to `CC(C)C[C@H](NC(=O)c1cc2ccccc2cn1)C(=O)N[C@@H](CC(=O)O)C(=O)N[C@H](C(=O)NCCO)[C@@H](C)O` [Table 7 example 9], the IC50 worked out at 1500 nM.
In the case of `CC(C)C[C@H](NC(=O)c1cc2ccccc2o1)C(=O)N[C@@H](CC(=O)O)C(=O)N[C@H](C(=O)NC1CCc2ccccc21)[C@@H](C)O` (stereo partly drawn) [Table 7 example 10], the IC50 stood at 1500 nM.

Still in this test, the particulars now being: read-out: hMAdCAM IC50, Table 7, R1-Leu-Asp-Thr-R2.
On to `CC(C)C[C@H](NC(=O)c1cc2ccccc2cn1)C(=O)N[C@@H](CC(=O)O)C(=O)N[C@H](C(=O)N1CCC(=O)CC1)[C@@H](C)O` [Table 7 example 2], for which the concentration for half-maximal inhibition (IC50) was found to be 940 nM.
